Measurements published in article PMC8234031, “Modular Assembly of Phosphite Dehydrogenase and Phenylacetone Monooxygenase for Tuning Cofactor Regeneration” (Biomolecules, 2021).

Biological target: T1, PAMOI (RIDD-tagged PAMO) (Thermobifida fusca, UniProt Q47PU3)
T1 construct: N-terminal 6xHis, C-terminal (GGGGS)x3 linker and 44-residue RIDD tag, kept; E. coli; 70 kDa; homodimer through the RIDD tag
Assay: UV-Vis absorbance ratio A280/A441 of the purified protein
Format: binding
Details: co-purified flavin; ratio given for the tagged PAMO fusions together

T1 sequence (Q47PU3 whole entry): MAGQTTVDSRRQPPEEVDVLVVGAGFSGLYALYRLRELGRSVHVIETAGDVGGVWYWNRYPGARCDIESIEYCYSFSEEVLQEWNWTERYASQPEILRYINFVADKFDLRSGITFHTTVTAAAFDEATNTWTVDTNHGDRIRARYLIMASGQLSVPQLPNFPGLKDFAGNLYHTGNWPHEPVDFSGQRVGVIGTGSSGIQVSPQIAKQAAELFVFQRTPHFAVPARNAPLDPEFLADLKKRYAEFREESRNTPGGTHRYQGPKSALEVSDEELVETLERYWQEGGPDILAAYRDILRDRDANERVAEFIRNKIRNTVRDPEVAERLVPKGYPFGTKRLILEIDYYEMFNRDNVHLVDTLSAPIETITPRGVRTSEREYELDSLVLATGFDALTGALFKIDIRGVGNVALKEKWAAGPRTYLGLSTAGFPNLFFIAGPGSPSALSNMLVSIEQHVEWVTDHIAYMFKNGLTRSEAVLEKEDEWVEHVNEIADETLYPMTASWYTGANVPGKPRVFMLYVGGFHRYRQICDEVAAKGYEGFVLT

## Cc1cc2nc3c(=O)[nH]c(=O)nc-3n(C[C@H](O)[C@H](O)[C@H](O)COP(=O)(O)OP(=O)(O)OC[C@H]3O[C@@H](n4cnc5c(N)ncnc54)[C@H](O)[C@@H]3O)c2cc1C [FAD]
  UV-Vis absorbance ratio A280/A441 of the purified protein: The tagged variants of PAMO were purified as yellow proteins
